According to patent publication US20100210722A1, “COMPOSITION FOR PREVENTING OR TREATING LIPID METABOLIC DISORDERS COMPRISING FUCOXANTHIN OR MARINE PLANT EXTRACT CONTAINING SAME” (AMICOGEN, INC., priority 2007, published 2010):
Marks after values point to notes of the source that are not given here.

How the values were obtained:
CPT mRNA = experiment: Expression of mRNA for CPT in adipose tissue (real-time PCR); type: in vivo, C57BL/6N/CriBgi mice; details: normal diet = 1.00, GAPDH internal marker
Description: (§1) Test diets were as follows: “normal diet group”=AIN-76 semisynthetic diet of Teklad (Madison, Wl, USA); “high fat diet group”=normal diet+10% of corn oil and 10% of lard; “test group I”=high fat diet+fucoxanthin extract of Example 1 (fucoxanthin content=0.05%); “test group II”=high fat diet+fucoxanthin extract of Example 1 (fucoxanthin content=0.2%); “test group III”=high fat diet+fucoxanthin extract of Example 2 (fucoxanthin content=0.05%); “test group IV”=high fat diet+fucoxanthin extract of Example 2 (fucoxanthin content=0.2%). The 6 diets (normal diet, high fat diet, and test I, II, III and IV) were given to the animals for 6 weeks. Diet intake was recorded every day, and body weight was measured once a week.
5 mL of Trizol was added to 0.5 g of white adipose tissue. After pulverizing in liquid nitrogen using a mortar, the tissue was added to 1 mL of chloroform. […] The isolated RNA was diluted and absorbance was measured at 260 nm using a UV spectrometer. […]
Thus prepared cDNA was […] 10-fold, and primers for analyzing the expression of the respective genes (CPT, β-oxidation, FAS, ME and G6PD) were obtained from Genotech (Daejeon, Korea). […] Fluorescence signals were monitored for each cycle and threshold cycle (Cr) was analyzed for quantitative analysis of mRNA for the test groups (Applied Biosystems, SDS7000) (Livak, 2001). […]

[1] = system: fatty acid synthase (FAS); experiment: FAS activity in adipose tissue; type: in vivo, C57BL/6N/CriBgi mice; details: high fat diet, 6 weeks
Description: as §1
The supernatant was centrifuged again at 12,000×g for 15 minutes. Then, the supernatant was subjected to high-speed centrifuging (Beckman, Optima TLX-120, USA) at 100,000×g for 1 hour. Then, change of the activity of enzymes involved in the synthesis of fatty acid—fatty acid synthase (FAS), glucose-6-phosphate dehydrogenase (G6PD) and malic enzyme (ME)—was measured.
Specifically, FAS activity was determined as follows. […] After 10 minutes of reaction at 30° C., decrease of absorbance was measured. FAS activity was calculated as nmol of NADPH oxidized per 1 mg of protein in cell per minute.

[2] = fucoxanthin content 0.05% (Test I/III)
[3] = fucoxanthin content 0.2% (Test II/IV)

SMILES: CC(=O)O[C@H]1CC(C)(C)C(=C=C/C(C)=C/C=C/C(C)=C/C=C/C=C(C)/C=C/C=C(\C)C(=O)C[C@@]23O[C@]2(C)C[C@@H](O)CC3(C)C)[C@](C)(O)C1 [highly pure fucoxanthin, Fucoxanthin]
- Expression of mRNA, CPT (CPT mRNA; [2]): 1.65 ± 0.15^c
- Expression of mRNA, CPT (CPT mRNA; [3]): 1.51 ± 0.06^bc
- FAS activity [1, 2]: 90.55 ± 9.66^a mmol/min/mg protein
- FAS activity [1, 3]: 74.26 ± 6.38^a mmol/min/mg protein
